# ChEMBL document CHEMBL2203174, “SAR Development of Lysine-Based Irreversible Inhibitors of Transglutaminase 2 for Huntington's Disease” (ACS Med Chem Lett, 2012)
# pIC50: −log10 of the molar value.
# How the values were obtained:
# [1] = biological target: T1, Protein-glutamine gamma-glutamyltransferase (Homo sapiens, UniProt P21980); assay: Irreversible inhibition of transglutaminase 2
# T1 sequence (P21980 whole entry): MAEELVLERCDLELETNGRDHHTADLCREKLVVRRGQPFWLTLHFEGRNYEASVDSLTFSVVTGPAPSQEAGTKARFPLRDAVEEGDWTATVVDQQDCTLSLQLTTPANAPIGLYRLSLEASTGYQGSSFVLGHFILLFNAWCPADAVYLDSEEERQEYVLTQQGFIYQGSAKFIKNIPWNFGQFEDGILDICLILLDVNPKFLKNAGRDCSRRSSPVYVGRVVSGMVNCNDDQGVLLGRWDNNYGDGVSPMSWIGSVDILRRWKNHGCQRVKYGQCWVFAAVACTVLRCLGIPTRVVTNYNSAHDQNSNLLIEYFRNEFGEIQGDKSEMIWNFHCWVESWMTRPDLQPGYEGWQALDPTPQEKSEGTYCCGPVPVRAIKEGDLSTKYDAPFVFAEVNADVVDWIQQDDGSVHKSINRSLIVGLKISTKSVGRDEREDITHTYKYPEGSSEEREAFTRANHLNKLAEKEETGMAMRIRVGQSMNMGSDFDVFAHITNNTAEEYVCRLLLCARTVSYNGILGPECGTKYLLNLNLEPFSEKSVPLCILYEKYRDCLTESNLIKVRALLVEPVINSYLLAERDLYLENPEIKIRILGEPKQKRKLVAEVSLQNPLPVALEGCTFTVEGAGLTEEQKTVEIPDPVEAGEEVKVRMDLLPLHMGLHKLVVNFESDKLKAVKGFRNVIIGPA
# [2] = Ratio of IC50 for mouse transglutaminase 2 to IC50 for human transglutaminase 2
# [3] = biological target: T2, Protein-glutamine gamma-glutamyltransferase K (Homo sapiens, UniProt P22735); assay: Inhibition of transglutaminase 1
# T2 sequence (P22735 whole entry): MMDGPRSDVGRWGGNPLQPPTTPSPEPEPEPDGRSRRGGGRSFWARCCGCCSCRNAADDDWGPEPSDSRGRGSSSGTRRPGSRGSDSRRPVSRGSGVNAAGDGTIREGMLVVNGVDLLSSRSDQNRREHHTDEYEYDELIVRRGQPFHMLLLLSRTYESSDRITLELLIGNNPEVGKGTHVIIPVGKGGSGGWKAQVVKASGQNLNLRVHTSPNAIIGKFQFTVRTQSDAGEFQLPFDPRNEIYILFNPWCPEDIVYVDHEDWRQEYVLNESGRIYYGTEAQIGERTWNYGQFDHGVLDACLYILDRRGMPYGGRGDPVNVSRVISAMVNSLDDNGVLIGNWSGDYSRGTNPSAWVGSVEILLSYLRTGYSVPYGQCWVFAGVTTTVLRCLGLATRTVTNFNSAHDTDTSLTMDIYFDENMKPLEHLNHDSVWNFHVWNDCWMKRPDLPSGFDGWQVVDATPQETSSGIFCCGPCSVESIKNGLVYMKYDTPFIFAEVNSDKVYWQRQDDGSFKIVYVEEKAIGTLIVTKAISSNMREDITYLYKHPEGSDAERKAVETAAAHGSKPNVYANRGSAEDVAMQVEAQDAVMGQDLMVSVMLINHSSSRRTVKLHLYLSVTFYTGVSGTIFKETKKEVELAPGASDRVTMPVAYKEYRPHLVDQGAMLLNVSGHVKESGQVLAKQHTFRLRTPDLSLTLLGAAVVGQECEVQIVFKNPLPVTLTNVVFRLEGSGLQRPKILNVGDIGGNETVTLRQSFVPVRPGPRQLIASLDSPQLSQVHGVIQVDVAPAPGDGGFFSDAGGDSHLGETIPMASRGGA
# [4] = biological target: T3, Coagulation factor XIII A chain (Homo sapiens, UniProt P00488); assay: Inhibition of coagulation factor 13a
# T3 sequence (P00488 whole entry): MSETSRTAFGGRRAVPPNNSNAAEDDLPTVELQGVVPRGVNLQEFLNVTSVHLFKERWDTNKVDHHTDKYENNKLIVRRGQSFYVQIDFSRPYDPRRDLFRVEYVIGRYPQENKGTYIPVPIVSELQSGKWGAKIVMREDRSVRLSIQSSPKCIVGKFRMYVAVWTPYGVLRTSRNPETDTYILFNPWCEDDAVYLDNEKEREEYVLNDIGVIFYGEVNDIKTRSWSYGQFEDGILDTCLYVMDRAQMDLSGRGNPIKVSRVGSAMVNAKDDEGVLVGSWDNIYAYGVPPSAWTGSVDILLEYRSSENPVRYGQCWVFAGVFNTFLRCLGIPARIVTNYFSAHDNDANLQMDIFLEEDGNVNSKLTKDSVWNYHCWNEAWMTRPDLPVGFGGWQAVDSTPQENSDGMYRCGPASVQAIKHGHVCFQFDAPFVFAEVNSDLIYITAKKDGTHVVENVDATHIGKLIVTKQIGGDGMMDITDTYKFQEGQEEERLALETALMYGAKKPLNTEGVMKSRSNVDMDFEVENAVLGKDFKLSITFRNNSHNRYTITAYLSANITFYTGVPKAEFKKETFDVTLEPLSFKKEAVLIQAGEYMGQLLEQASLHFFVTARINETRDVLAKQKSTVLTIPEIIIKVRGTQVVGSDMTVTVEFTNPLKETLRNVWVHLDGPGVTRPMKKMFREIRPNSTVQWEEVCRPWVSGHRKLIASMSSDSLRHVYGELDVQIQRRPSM
# [5] = biological target: T4, Protein-glutamine gamma-glutamyltransferase E (Homo sapiens, UniProt Q08188); assay: Inhibition of transglutaminase 3
# T4 sequence (Q08188 whole entry): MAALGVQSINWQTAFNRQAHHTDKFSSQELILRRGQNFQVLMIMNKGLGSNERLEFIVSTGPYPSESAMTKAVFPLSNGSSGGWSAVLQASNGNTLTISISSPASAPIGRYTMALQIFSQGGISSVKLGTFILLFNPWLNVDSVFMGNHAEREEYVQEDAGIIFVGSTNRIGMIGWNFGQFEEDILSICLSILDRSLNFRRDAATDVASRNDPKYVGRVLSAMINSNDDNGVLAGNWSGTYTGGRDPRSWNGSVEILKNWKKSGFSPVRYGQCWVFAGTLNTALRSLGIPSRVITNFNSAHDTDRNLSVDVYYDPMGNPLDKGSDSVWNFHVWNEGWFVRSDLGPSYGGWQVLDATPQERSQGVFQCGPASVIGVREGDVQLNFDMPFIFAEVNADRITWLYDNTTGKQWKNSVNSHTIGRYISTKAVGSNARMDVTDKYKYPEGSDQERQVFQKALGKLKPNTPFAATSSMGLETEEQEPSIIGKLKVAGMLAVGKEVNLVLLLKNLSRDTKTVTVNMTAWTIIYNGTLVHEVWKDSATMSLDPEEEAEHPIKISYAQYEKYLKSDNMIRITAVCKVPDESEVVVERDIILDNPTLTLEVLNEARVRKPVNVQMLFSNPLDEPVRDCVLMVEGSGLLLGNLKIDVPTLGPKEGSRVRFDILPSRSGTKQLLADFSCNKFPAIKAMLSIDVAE
SMILES,pIC50 [1],further results
C=CC(=O)NCCCC[C@H](NC(=O)c1ccc2ccccc2c1)C(=O)N1CCN(c2cccc(C)n2)CC1,5.80,
C=CC(=O)NCCCC[C@H](NC(=O)OCc1ccccc1Cl)C(=O)O,5.72,
C=CC(=O)NCCCC[C@H](NC(=O)OCc1ccccc1C(F)(F)F)C(=O)O,5.46,
C=CC(=O)NCCCC[C@H](NC(=O)OCc1ccccc1)C(=O)N1CCN(c2cc(Cl)ccc2OC)CC1,7.11,Ratio IC50 [2]: 2
C=CC(=O)Nc1ccc(C[C@H](NC(=O)OCc2ccccc2)C(=O)O)cc1,< 4.10,
C=CC(=O)NCCCCCNC(=O)OCc1ccccc1,5.12,
C=CC(=O)NCCCC[C@H](NC(=O)OCc1ccccc1)C(=O)N1CCOCC1,6.14,
C=CC(=O)NCCCC[C@H](NC(=O)OCc1ccc(C(F)(F)F)cc1)C(=O)O,4.48,
C=CC(=O)NCCCC[C@H](NC(=O)OC)C(=O)O,< 4.10,
C=CC(=O)N1CCC(C[C@H](NC(=O)OC(C)(C)C)C(=O)O)CC1,< 4.10,
C=CC(=O)NCCCC[C@H](NC(=O)OCc1cccc2ccccc12)C(=O)O,4.85,
C=CC(=O)NCCCC[C@H](NC(=O)OCc1ccccc1)C(=O)N1CCC1,5.60,
C=CC(=O)NCCCC[C@H](NC(=O)OCc1ccccc1)C(=O)N(CC)CC,5.85,
C=CC(=O)NCCCC[C@@H](CO)NC(=O)OCc1ccccc1,5.27,
C=CC(=O)NCCCC[C@H](NC(=O)OCc1ccccc1)C(=O)N1Cc2ccccc2C1,6.62,
C=CC(=O)NCCCC[C@H](NC(=O)OCc1ccccc1)C(=O)N1CCN(C)CC1,6.21,Ratio IC50 [2]: 2
C=CC(=O)NCCCC[C@H](NC(=O)OCc1cccc(C(F)(F)F)c1)C(=O)O,5.00,
C=CC(=O)NCCCC[C@H](NC(=O)OCc1ccc(F)cc1)C(=O)O,5.10,
C=CC(=O)NCCCC[C@H](NC(=O)OCc1ccc(CCCC)cc1)C(=O)O,5.23,
C=CC(=O)NCCCC[C@H](NC(=O)OCc1ccccc1)C(=O)N1CCC(c2ccccc2)CC1,7.27,pIC50 [3]: 5.03; pIC50 [4]: 4.68; pIC50 [5]: < 4.10
C=CC(=O)NCCCC[C@H](NC(=O)OCc1ccccc1)C(=O)N1CCCCCC1,6.23,

SMILES,pIC50 [1],further results
C=CC(=O)NCCCC[C@H](NC(=O)OCc1ccccc1)C(=O)N1CCN(c2ncccc2C)CC1,6.77,Ratio IC50 [2]: 2
C=CC(=O)NCCCC[C@H](NC(=O)OCc1ccccc1)C(=O)N1CCN(c2ccccn2)CC1,6.59,Ratio IC50 [2]: 2
C=CC(=O)NCCCC[C@H](NC(=O)OCc1ccccc1)C(=O)N1CCCCC1,5.92,
C=CC(=O)NCCCC[C@H](NC(=O)c1ccccc1)C(=O)N1CCN(c2cccc(C)n2)CC1,6.72,
C=CC(=O)NCCCC[C@H](NC(C)=O)C(=O)N1CCN(c2cccc(C)n2)CC1,6.72,
C=CC(=O)NCCCC[C@H](NC(=O)OCc1ccc(C(C)(C)C)cc1)C(=O)O,4.68,
C=CC(=O)NCCCC[C@H](NC(=O)OCc1ccccc1)C(=O)N1CCN(c2ncccc2C(F)(F)F)CC1,6.80,Ratio IC50 [2]: 2
C=CC(=O)NCCCC[C@H](NC(=O)OCc1ccccc1)C(=O)N1CCC(F)(F)CC1,6.18,
C=CC(=O)NCCCC[C@H](NC(=O)OCc1ccc2ccccc2c1)C(=O)O,5.04,
C=CC(=O)NCCCC[C@H](NC(=O)OCc1c(F)cccc1F)C(=O)O,5.00,
C=CC(=O)NCCCC[C@H](NC(=O)OCc1ccccc1)C(=O)N1CCCC1,6.24,
C=CC(=O)NCCCC[C@H](NC(=O)OCc1ccccc1)C(=O)N1CCN(c2ccc3ccccc3c2)CC1,6.64,Ratio IC50 [2]: 2
C=CC(=O)NCCCC[C@H](NC(=O)OC(C)(C)C)C(=O)N1CCN(c2cccc(C)n2)CC1,6.07,
C=CC(=O)NCCCC[C@H](NC(=O)OCc1ccccc1)C(=O)O,5.57,
C=CC(=O)NCCCC[C@H](NC(=O)OCc1ccc([N+](=O)[O-])cc1)C(=O)O,4.21,
C=CC(=O)NCCCC[C@H](NC(=O)OCc1ccccc1)C(=O)N(C)C,5.96,
C=CC(=O)NCCCC[C@H](NC(=O)OCc1ccc(C)cc1)C(=O)O,4.85,
C=CC(=O)NCCC1C[C@@H](C(=O)N2CCN(c3cccc(C)n3)CC2)N(C(=O)OC(C)(C)C)C1 (mixture of isomers),5.74,
C=CC(=O)NCCCC[C@H](NC(=O)OCc1ccccc1)C(=O)N1CCN(c2cccc(C)n2)CC1,7.26,Ratio IC50 [2]: 2
C=CC(=O)NCCCC[C@H](NC(=O)OCc1ccccc1)C(=O)N1CCN(c2ccc(C(F)(F)F)cn2)CC1,6.96,Ratio IC50 [2]: 2
